Results published in patent publication US20240158404A1, “MODULATORS OF ALPHA-1 ANTITRYPSIN” (Vertex Pharmaceuticals Incorporated, priority 2022, published 2024).

Assays:
[1] = Exposure multiple in rat 5-day toxicology studies; format: in vivo; parameters: key to Exposure Multiple: ratio of tox-species AUC to target efficacious AUCss; details: for EM Score: based on the maximum exposure multiple achieved in the rat 5-day toxicology study; for Exposure Multiple: rat 5-day toxicology study, vs predicted human efficacious exposure
Description: “Exposure multiple” as used herein, refers to an assessment of relative compound exposure in toxicology studies. The calculation of an exposure multiple is accomplished by comparing the exposure (AUC) achieved in a toxicology species relative to the target efficacious exposure at steady state (AUCss). The larger exposure multiple provides the opportunity to explore higher doses relative to efficacious concentration in clinical development. However, the exposure that results in an adverse toxicological outcome is unpredictable.
The calculation of an exposure multiple is accomplished by comparing the plasma exposure (AUC) achieved in a toxicology species relative to the target efficacious exposure at steady state (AUCss). […] In addition, this exposure multiple can allow for further exploration of the desired pharmacology due to the opportunity for a larger window established in toxicology studies. However, the exposure that results in a toxicological outcome in preclinical toxicology studies is unpredictable.
Human exposure multiple (EM) values shown relate to the fold increase in exposure achieved in rat 5-day toxicology studies for a given dose relative to the predicted efficacious exposure anticipated in human (based on cellular NL20 EC50 in vitro efficacy). The exposure multiple score is based on the maximum exposure multiple achieved in the given study. This allows relative comparison across compounds when also considering the administered dose. […] In the tables below, the following meanings apply for exposure multiple scores: “−” means <1; “+” means 1-10; “++” means 10-20; “+++” means 20-30; “++++” means 30-50; and “+++++” means >50.

AAT = target: T1, AAT (Homo sapiens, UniProt P01009, E366K); experiment: Compound Quality score (potency in AAT functional assay multiplied by unbound clearance); details: compound potency (EC50) x unbound clearance; class symbols
T1 construct: expressed in transfected cells; host or cells: NL20 human bronchial epithelial cells (NL20-SI cell line), with doxycycline added alongside the compounds
Description: As used herein, the term “Compound Quality” refers to the potency of a compound multiplied (x) by the compound's unbound clearance as measured using the assays described in Example 6.
The terms “unbound clearance” refer to unbound intrinsic clearance (unbound CLint) in hepatocytes—the intrinsic clearance a drug would have in the absence of protein binding. Unbound CLint=CLint,hep/fu,hep, where CLint,hep is intrinsic clearance in hepatocytes and fu,hep is unbound fraction in hepatocytes.
A key consideration for the selection of compounds suitable for clinical development is the projection of human dose as described in Equations 1-3. Two key parameters that comprise the dose equation are the unbound clearance of a compound and the plasma efficacious exposure (also referred to herein as compound potency). Together these parameters are known to one skilled in the art as a measurement of Compound Quality and suitability for advancement into clinical development. Thus, when evaluating AAT modulator compounds, one needs to consider both the potency and unbound clearance parameters (i.e., Compound Quality). The relationship between these two parameters can be challenging to predict.
The values provided in the table below are calculated by multiplying the EC50 of each of the compounds by the result from the clearance assay procedures described in Section C above and rounded to two significant figures. In the table below, the following meanings apply for Compound Quality (i.e., compound potency x unbound clearance) values: “++++” means ≤0.2; “+++” means >0.20 and ≤0.30; “++” means >0.30 and ≤0.40; “+” means >0.40 and ≤0.50.

T1 sequence (P01009 25-418 E366K): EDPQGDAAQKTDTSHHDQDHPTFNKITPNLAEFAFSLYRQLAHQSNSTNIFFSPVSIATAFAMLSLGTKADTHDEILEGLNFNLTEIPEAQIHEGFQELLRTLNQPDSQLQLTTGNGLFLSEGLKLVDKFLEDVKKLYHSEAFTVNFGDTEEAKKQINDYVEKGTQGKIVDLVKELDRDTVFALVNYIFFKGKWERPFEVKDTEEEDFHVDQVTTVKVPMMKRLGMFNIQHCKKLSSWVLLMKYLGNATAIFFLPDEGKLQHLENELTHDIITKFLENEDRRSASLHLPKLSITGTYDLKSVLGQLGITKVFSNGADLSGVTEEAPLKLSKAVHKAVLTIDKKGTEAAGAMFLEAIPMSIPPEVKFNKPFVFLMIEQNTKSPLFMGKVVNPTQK

| Compound Quality (AAT) | SMILES | EM Score [1] | also measured |
| --- | --- | --- | --- |
| ++++ (“++++” means ≤0.2) | CC[C@@](O)(COC)c1c(-c2ccc(C(=O)O)cc2)c2c(F)c3[nH]ncc3cc2n1-c1ccc(F)cc1 [Compound 1, (S)-4-(8-Fluoro-5-(4-fluorophenyl)-6-(2-hydroxy-1-methoxybutan-2-yl)-1,5-dihydropyrrolo[2,3-f]indazol-7-yl)benzoic acid] | +++++ (“+++++” means >50) | Exposure Multiple ([1]; Bid dose 50 (daily 100)): 10; Exposure Multiple ([1]; Bid dose 200 (daily 400)): 82; Exposure Multiple ([1]; Bid dose 500 (daily 1000)): 126 |
| +++ (“+++” means >0.20 and ≤0.30) | CC[C@@](O)(COC)c1c(-c2ccc(C(=O)O)cc2)c2c(F)c3[nH]ncc3cc2n1-c1ccc(F)c(C)c1 [Compound 2, (S)-4-(8-fluoro-5-(4-fluoro-3-methylphenyl)-6-(2-hydroxy-1-methoxybutan-2-yl)-1,5-dihydropyrrolo[2,3-f]indazol-7-yl)benzoic acid] | ++++ (“++++” means 30-50) | Exposure Multiple ([1]; Bid dose 50 (daily 100)): 2; Exposure Multiple ([1]; Bid dose 200 (daily 400)): 10; Exposure Multiple ([1]; Bid dose 500 (daily 1000)): 40 |
| +++ (“+++” means >0.20 and ≤0.30) | CC[C@@](O)(COC)c1c(-c2ccc(C(=O)O)cc2)c2c(F)c3[nH]ncc3cc2n1-c1ccc(F)c(OC)c1 [Compound 3, (S)-4-(8-fluoro-5-(4-fluoro-3-methoxyphenyl)-6-(2-hydroxy-1-methoxybutan-2-yl)-1,5-dihydropyrrolo[2,3-f]indazol-7-yl)benzoic acid] | +++++ (“+++++” means >50) | Exposure Multiple ([1]; Bid dose 50 (daily 100)): 2; Exposure Multiple ([1]; Bid dose 200 (daily 400)): 17; Exposure Multiple ([1]; Bid dose 500 (daily 1000)): 60 |
| +++ (“+++” means >0.20 and ≤0.30) | CC[C@@](O)(COC)c1c(-c2ccc(C(=O)O)cc2)c2c(F)c3[nH]ncc3cc2n1-c1ccc(F)c(Cl)c1 [Compound 4] | ++++ (“++++” means 30-50) | Exposure Multiple ([1]; Bid dose 50 (daily 100)): 8; Exposure Multiple ([1]; Bid dose 200 (daily 400)): 21; Exposure Multiple ([1]; Bid dose 400 (daily 800)): 32 |
| ++++ (“++++” means ≤0.2) | CC[C@@](O)(COC)c1c(-c2ccc(C(=O)O)cc2)c2c(F)c3[nH]ncc3cc2n1-c1ccc(F)c(F)c1 [Compound 5, (S)-4-(5-(3,4-Difluorophenyl)-8-fluoro-6-(2-hydroxy-1-methoxybutan-2-yl)-1,5-dihydropyrrolo[2,3-f]indazol-7-yl)benzoic acid] | +++++ (“+++++” means >50) | Exposure Multiple ([1]; Bid dose 50 (daily 100)): 39; Exposure Multiple ([1]; Bid dose 150 (daily 300)): 114; Exposure Multiple ([1]; Bid dose 300 (daily 600)): 173 |
| ++ (“++” means >0.30 and ≤0.40) | [2H]C([2H])([2H])Oc1cc(-n2c(C3(O)CCCC[C@@H]3OC)c(-c3ccc(C(=O)O)cc3)c3c(F)c4[nH]ncc4cc32)ccc1F (some centres unmarked) [Compound 51] | – | – |
| ++ (“++” means >0.30 and ≤0.40) | [2H]C([2H])([2H])OCC(O)(CC)c1c(-c2ccc(C(=O)O)cc2)c2c(F)c3[nH]ncc3cc2n1-c1ccc(F)cc1 (centres unmarked) [Compound 52] | – | – |
| ++ (“++” means >0.30 and ≤0.40) | [2H]C([2H])([2H])OCC(O)(CC)c1c(-c2ccc(C(=O)O)cc2)c2c(F)c3[nH]ncc3cc2n1-c1ccc(F)c(OC)c1 (centres unmarked) [Compound 53] | – | – |
| ++++ (“++++” means ≤0.2) | [2H]C([2H])([2H])Oc1cc(-n2c(C3(O)CCCC[C@@H]3OC)c(-c3ccc(C(=O)O)c(C)c3)c3c(F)c4[nH]ncc4cc32)ccc1F (some centres unmarked) [Compound 54] | – | – |
| ++ (“++” means >0.30 and ≤0.40) | COc1cc(-n2c(C3(O)CCCC[C@@H]3OC)c(-c3ccc(C(=O)O)c(C)c3)c3c(F)c4[nH]ncc4cc32)ccc1F (some centres unmarked) [Compound 55] | – | – |
| +++ (“+++” means >0.20 and ≤0.30) | CO[C@H]1CCCCC1(O)c1c(-c2ccc(C(=O)O)c(C)c2)c2c(F)c3[nH]ncc3cc2n1-c1ccc(F)cc1 (some centres unmarked) [Compound 56] | – | – |
| + (“+” means >0.40 and ≤0.50) | [2H]C([2H])([2H])OC[C@@](O)(c1c(-c2ccc(C(=O)O)cc2)c2c(F)c3[nH]ncc3cc2n1-c1ccc(F)c(C)c1)C([2H])([2H])C([2H])([2H])[2H] [Compound 57] | – | – |
| + (“+” means >0.40 and ≤0.50) | CCOC1CCCC1(O)c1c(-c2ccc(C(=O)O)cc2)c2c(F)c3[nH]ncc3cc2n1-c1ccc(F)c(OC)c1 (centres unmarked) [Compound 58] | – | – |
| ++ (“++” means >0.30 and ≤0.40) | COC1COCCC1(O)c1c(-c2ccc(C(=O)O)cc2)c2c(F)c3[nH]ncc3cc2n1-c1ccc(F)c(C)c1 (centres unmarked) [Compound 59] | – | – |
| +++ (“+++” means >0.20 and ≤0.30) | CO[C@H]1CCCCC1(O)c1c(-c2ccc(C(=O)O)cc2)c2c(F)c3[nH]ncc3cc2n1-c1ccc(F)c(F)c1F (some centres unmarked) [Compound 60] | – | – |
| +++ (“+++” means >0.20 and ≤0.30) | CO[C@H]1CCCCC1(O)c1c(-c2ccc(C(=O)O)cc2)c2c(F)c3[nH]ncc3cc2n1-c1cc(F)c(F)cc1F (some centres unmarked) [Compound 61] | – | – |
| + (“+” means >0.40 and ≤0.50) | CCC(O)(COC)c1c(-c2ccc(C(=O)O)cc2F)c2c(F)c3[nH]ncc3cc2n1-c1ccc(F)c(F)c1 (centres unmarked) [Compound 62] | – | – |
| + (“+” means >0.40 and ≤0.50) | CCC(O)(COC)c1c(-c2ccc(C(=O)O)cc2F)c2c(F)c3[nH]ncc3cc2n1-c1ccc(F)c(C)c1 (centres unmarked) [Compound 63] | – | – |
| ++ (“++” means >0.30 and ≤0.40) | CCOCC(O)(CC)c1c(-c2ccc(C(=O)O)cc2)c2c(F)c3[nH]ncc3cc2n1-c1cccc2cnn(C)c12 (centres unmarked) [Compound 64] | – | – |
| + (“+” means >0.40 and ≤0.50) | [2H]C([2H])([2H])Oc1cc(-n2c(C(O)(CC)COC)c(-c3ccc(C(=O)O)c(CC)c3)c3c(F)c4[nH]ncc4cc32)ccc1F (centres unmarked) [Compound 65] | – | – |
| ++ (“++” means >0.30 and ≤0.40) | COc1cc(-n2c(C3(O)CCCCC3F)c(-c3ccc(C(=O)O)cc3)c3c(F)c4[nH]ncc4cc32)ccc1F (centres unmarked) [Compound 66] | – | – |
| ++ (“++” means >0.30 and ≤0.40) | CO[C@H]1CCCCC1(O)c1c(-c2ccc(C(=O)O)c(F)c2)c2c(F)c3[nH]ncc3cc2n1-c1ccc(F)cc1 (some centres unmarked) [Compound 67] | – | – |
| – | CC[C@](O)(COC)c1c(-c2ccc(C(=O)O)cc2)c2cc3[nH]ncc3cc2n1-c1ccc(F)c(Cl)c1 [reference compound] | + (“+” means 1-10) | Exposure Multiple ([1]; Bid dose 100 (daily 200)): 2; Exposure Multiple ([1]; Bid dose 250 (daily 500)): 1; Exposure Multiple ([1]; Bid dose 500 (daily 1000)): 2 |
| – | CCC(O)(COC)c1c(-c2ccc(C(=O)O)cc2)c2cc3[nH]ncc3cc2n1-c1ccc(F)cc1 (centres unmarked) [reference compound] | ++ (“++” means 10-20) | Exposure Multiple ([1]; Bid dose 250 (daily 500)): 14 |
| – | O=C(O)c1ccc(-c2c(C3CCOCC3)n(-c3ccc(F)c(F)c3)c3cc4cn[nH]c4cc23)cc1 [reference compound] | − (“−” means <1) | Exposure Multiple ([1]; Bid dose 300 (daily 600)): 0.4 |
| – | COCC(C)(C)c1c(-c2ccc(C(=O)O)cc2)c2cc3[nH]ncc3cc2n1-c1ccc(F)cc1 [reference compound] | ++ (“++” means 10-20) | Exposure Multiple ([1]; Bid dose 25 (daily 50)): 5; Exposure Multiple ([1]; Bid dose 50 (daily 100)): 13; Exposure Multiple ([1]; Bid dose 100 (daily 200)): 18 |
| – | CC(C)(CC#N)c1c(-c2ccc(C(=O)O)cc2)c2cc3[nH]ncc3cc2n1-c1ccc(F)cc1 [reference compound] | + (“+” means 1-10) | Exposure Multiple ([1]; Bid dose 287.5 (daily 575)): 1.8 |
